The values below come from patent publication US10711004B2 (Genentech, Inc., priority 2018, dated 2020).

Where two headings read alike, the source gives them in different places.

This assay has as its target human TRPA1 channel (Homo sapiens (Human), UniProt O75762). The experiment in a line: hTRPA1 CHO Ca2+ FLIPR Tetra assay, block of cinnamaldehyde induced calcium influx. In kind it is cell-based. As to conditions: CHO cells expressing TRPA1, Hill coefficient fixed to 1.5. The method in brief: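 Calcium-dye-loaded TRPA1-expressing CHO cells in HBSS/20 mM HEPES pH 7.4, 0.02% BSA were preincubated with compound for 10 or 90 min at room temperature. Calcium influx evoked by roughly an EC50 concentration of cinnamaldehyde was then read on FLIPR Tetra; IC50 came from curve fits with a fixed Hill coefficient.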

[1] abbreviates: read-out: hTRPA1 IC50 (10 min), compounds incubated 10 minutes at room temperature before cinnamaldehyde agonist.
Where [2] appears, read: read-out: hTRPA1 IC50 (90 min), compounds incubated 90 minutes at room temperature before cinnamaldehyde agonist.

human TRPA1 channel, sequence (O75762 whole entry): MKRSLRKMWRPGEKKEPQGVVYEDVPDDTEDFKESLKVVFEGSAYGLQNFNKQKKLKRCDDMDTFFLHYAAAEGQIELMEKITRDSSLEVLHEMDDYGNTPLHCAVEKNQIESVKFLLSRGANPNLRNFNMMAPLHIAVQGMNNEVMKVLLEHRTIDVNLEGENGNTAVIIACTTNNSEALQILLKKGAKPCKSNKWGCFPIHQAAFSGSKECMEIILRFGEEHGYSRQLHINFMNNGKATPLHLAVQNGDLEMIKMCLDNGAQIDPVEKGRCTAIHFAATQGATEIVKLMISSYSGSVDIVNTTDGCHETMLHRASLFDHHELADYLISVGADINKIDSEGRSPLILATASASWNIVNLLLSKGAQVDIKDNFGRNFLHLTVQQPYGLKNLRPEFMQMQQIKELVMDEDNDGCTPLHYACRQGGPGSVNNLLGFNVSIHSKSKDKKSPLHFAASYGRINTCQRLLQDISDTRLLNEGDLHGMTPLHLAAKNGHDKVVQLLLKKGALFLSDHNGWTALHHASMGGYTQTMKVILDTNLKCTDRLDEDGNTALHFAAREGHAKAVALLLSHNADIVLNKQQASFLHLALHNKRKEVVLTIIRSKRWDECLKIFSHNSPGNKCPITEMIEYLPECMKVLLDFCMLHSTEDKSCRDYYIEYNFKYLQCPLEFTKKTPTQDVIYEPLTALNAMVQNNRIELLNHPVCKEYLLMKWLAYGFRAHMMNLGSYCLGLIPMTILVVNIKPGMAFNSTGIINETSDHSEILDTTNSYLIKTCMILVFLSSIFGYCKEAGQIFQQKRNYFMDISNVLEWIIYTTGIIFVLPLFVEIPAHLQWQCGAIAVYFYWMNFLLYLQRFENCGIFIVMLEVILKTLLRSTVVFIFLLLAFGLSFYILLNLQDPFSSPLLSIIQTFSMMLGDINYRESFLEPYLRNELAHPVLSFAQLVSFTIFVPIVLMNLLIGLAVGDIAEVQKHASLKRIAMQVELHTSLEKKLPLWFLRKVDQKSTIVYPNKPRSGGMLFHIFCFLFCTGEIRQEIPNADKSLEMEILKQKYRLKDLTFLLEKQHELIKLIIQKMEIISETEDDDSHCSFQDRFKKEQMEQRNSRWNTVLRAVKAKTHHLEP

With `Cn1cnc2ncn(Cc3nc([C@H]4[C@@H]5C=C(c6cc(F)cc(F)c6)C[C@@H]54)no3)c(=O)c21` [Example Compound 270, 7-methyl-1-[[3-[(1S,5S,6R)-3-(3,5-difluorophenyl)-6-bicyclo[3.1.0]hex-2-enyl]-1,2,4-oxadiazol-5-yl]methyl]purin-6-one], the half-inhibitory concentration (IC50) reads like this: under setting [1], 13 nM; under setting [2], 2.4 nM.
Turning to `Cn1cnc2ncn(Cc3nc([C@H]4[C@@H]5CN(c6cc(F)c(Cl)c(F)c6)C[C@@H]54)no3)c(=O)c21` [Example Compound 271, 7-methyl-1-[[3-[(1S,5R)-3-(4-chloro-3,5-difluoro-phenyl)-3-azabicyclo[3.1.0]hexan-6-yl]-1,2,4-oxadiazol-5-yl]methyl]purin-6-one], the concentration for half-maximal inhibition (IC50) under setting [1] came to 34.7 nM and the IC50 under setting [2] was determined as 11 nM.
The matching figures for `O=c1c2ccc(Cl)nc2ncn1Cc1nc([C@H]2[C@@H]3CN(c4cccc(F)c4)C[C@@H]32)no1` [Example Compound 272, 7-chloro-3-[[3-[(1R,5S)-3-(3-fluorophenyl)-3-azabicyclo[3.1.0]hexan-6-yl]-1,2,4-oxadiazol-5-yl]methyl]pyrido[2,3-d]pyrimidin-4-one]: 58.3 nM and 35 nM.
In the same order, the values of `O=c1c2cccc(=O)n2ccn1Cc1nc([C@@H]2[C@H]3C=C(c4ccccc4)C[C@H]32)no1` [Example Compound 275, 2-[[3-[(1R,5R,6S)-3-phenyl-6-bicyclo[3.1.0]hex-2-enyl]-1,2,4-oxadiazol-5-yl]methyl]pyrido[1,2-a]pyrazine-1,6-dione] are 11.9 nM and 6.5 nM.
On to `Cn1cnc2ncn(Cc3nc([C@H]4[C@@H]5CN(c6ccc(Cl)cc6F)C[C@@H]54)no3)c(=O)c21` [Example Compound 276, 7-methyl-1-[[3-[(1S,5R)-3-(4-chloro-2-fluorophenyl)-3-azabicyclo[3.1.0]hexan-6-yl]-1,2,4-oxadiazol-5-yl]methyl]purin-6-one], for which the IC50 by setting is: under setting [1], 15 nM; under setting [2], 7.4 nM.
`Cn1cnc2ncn(Cc3nc([C@@H]4[C@H]5C=C(c6ccc(-c7cnco7)cc6)C[C@H]54)no3)c(=O)c21` [Example Compound 277, 7-methyl-1-[[3-[(1R,5R,6S)-3-(4-oxazol-5-ylphenyl)-6-bicyclo[3.1.0]hex-2-enyl]-1,2,4-oxadiazol-5-yl]methyl]purin-6-one]: the concentration for half-maximal inhibition (IC50) runs as follows: (compounds incubated 10 minutes at room temperature before cinnamaldehyde agonist) 16.8 nM; (compounds incubated 90 minutes at room temperature before cinnamaldehyde agonist) 11 nM.
As for `Cn1cnc2ncn(Cc3nc([C@H]4[C@@H]5C=C(c6ccc7ncsc7c6)C[C@@H]54)no3)c(=O)c21` [Example Compound 278, 7-methyl-1-[[3-[(1S,5S,6R)-3-(1,3-benzothiazol-6-yl)-6-bicyclo[3.1.0]hex-2-enyl]-1,2,4-oxadiazol-5-yl]methyl]purin-6-one], the half-inhibitory concentration (IC50) reads like this: under setting [1], 15.8 nM; under setting [2], 3.1 nM.
The matching figures for `O=c1c2cccnc2cnn1Cc1nc([C@H]2[C@@H]3CN(c4ccc5ncsc5c4)C[C@@H]32)no1` [Example Compound 279, 6-[[3-[(1R,5S)-3-(1,3-benzothiazol-6-yl)-3-azabicyclo[3.1.0]hexan-6-yl]-1,2,4-oxadiazol-5-yl]methyl]pyrido[2,3-d]pyridazin-5-one]: 11.2 nM and 5.6 nM.
On to `Cn1cnc2ncn(Cc3nc([C@@H]4[C@H]5C=C(c6cccc(-c7cnco7)c6)C[C@H]54)no3)c(=O)c21` [Example Compound 280, 7-methyl-1-[[3-[(1R,5R,6S)-3-(3-oxazol-5-ylphenyl)-6-bicyclo[3.1.0]hex-2-enyl]-1,2,4-oxadiazol-5-yl]methyl]purin-6-one], for which the IC50 under setting [1] was 46.1 nM and the IC50 under setting [2] was found to be 40 nM.
Turning to `Cn1cnc2ncn(Cc3nc([C@@H]4[C@H]5C=C(c6ccc(C(F)F)cc6)C[C@H]54)no3)c(=O)c21` [Example Compound 281, 7-methyl-1-[[3-[(1R,5R,6S)-3-[4-(difluoromethyl)phenyl]-6-bicyclo[3.1.0]hex-2-enyl]-1,2,4-oxadiazol-5-yl]methyl]purin-6-one], the IC50 runs as follows: under setting [1], 67.9 nM; under setting [2], 35 nM.
As for `Cn1cnc2ncn(Cc3nc([C@@H]4[C@H]5C=C(c6cccc(F)c6F)C[C@H]54)no3)c(=O)c21` [Example Compound 282, 7-methyl-1-[[3-[(1R,5R,6S)-3-(2,3-difluorophenyl)-6-bicyclo[3.1.0]hex-2-enyl]-1,2,4-oxadiazol-5-yl]methyl]purin-6-one], the IC50 came out at 16.9 nM (read-out: hTRPA1 IC50 (10 min), compounds incubated 10 minutes at room temperature before cinnamaldehyde agonist, listed as 282) and 3.1 nM (read-out: hTRPA1 IC50 (90 min), compounds incubated 90 minutes at room temperature before cinnamaldehyde agonist, listed as 282).
On to `Cn1cnc2ncn(Cc3nc([C@@H]4[C@H]5C=C(c6ccc(C#N)c(F)c6)C[C@H]54)no3)c(=O)c21` [Example Compound 283, 2-fluoro-4-[(1R,5R,6S)-6-[5-[(7-methyl-6-oxo-purin-1-yl)methyl]-1,2,4-oxadiazol-3-yl]-3-bicyclo[3.1.0]hex-2-enyl]benzonitrile], for which the half-inhibitory concentration (IC50) turned out to be 19.6 nM under setting [1] and 5.3 nM under setting [2].

Usually IC50 stands for the concentration at which inhibition is half-maximal.
